Tests used:
[1] = Single-dose pharmacokinetic study PO/IP in wild type mice; format: in vivo, C57BL/6 mice; details: for AUC / Cmax / Tmax / half-life: C57BL/6, mouse plasma
Description: Plasma from the 19 hamsters dosed with ARI-001 in the above described 18-day study was analyzed for concentrations of ARI-001. Concentrations were determined for these samples, which were collected 24 hours after the final dose was administered. Briefly, plasma drug concentrations for the non-GLP pharmacokinetic experiments were determined by LC-MS using an Applied Biosystems 4000Qtrap spectrometer with electrospray ionization. Samples were prepared for analysis by precipitation of plasma proteins with cold methanol. HPLC of the samples was done with an Agilent Eclipse C18 column and a methanol/water gradient containing 0.1% formic acid and 5 mM ammonium acetate. ARI-001 was detected using multiple reaction monitoring (MRM) in the positive ion mode. For quantitation, a standard curve was measured by addition of known amounts of ARI-001 to plasma from untreated animals and preparing in a manner identical to the samples from treated animals. All plasma samples were spiked with 10 ng/mL of isotope-enriched ARI-001 which served as an internal standard for the LC-MS measurements. All compound concentrations are reported in μM. For correlation analysis, plasma concentrations of ARI-001 in a given animal were paired with that same animal's lipid parameter. […] These correlations are graphed in FIG. 6 and FIG. 7. Pearson r values were determined using all data points, as was the two-tailed P-value for the data set.
Wild type C57BL/6 mice were dosed with a single administration of ARI-001 in solution either via oral gavage (PO) or via intraperitoneal injection (IP). Blood samples were then collected at various time points over a 24-hour period; plasma was then analyzed for concentrations of ARI-001 as described earlier. ARI-001 was administered at either a dose of 2240 mg/kg as a single bolus via oral gavage, or a dose of 448 mg/kg as a single bolus via intraperitoneal injection.

[2] = test system: high fat+fructose (HF/HS) diet hamsters; assay: 18-day oral dosing lipid study in HF/HS hamsters; format: in vivo, male Golden Syrian hamsters
Description: We examined the effects of diet modulation on the lipid profile of male Syrian Golden hamsters. Hamsters were ordered from Charles River Labs (Wilmington, Mass.), and requested to be 111-120 g in weight (correspondingly 56-61 days old). Hamsters were kept in cages of 4-5 per cage, and maintained on a standard light cycle of 12 hours on/12 hours off. All diets were obtained from Dyets, Inc. (Bethlehem, Pa.). “Normal Diet” was a standard rodent chow, catalog #5001, produced into pellets. Water and this standard chow diet were available to this group of hamsters ad libitum. Food was added to cages as needed, but no less frequently than twice per week. “High Fat Diet” was the same standard rodent chow supplemented with the following: 11.5% corn oil, 11.5% coconut oil, 0.5% cholesterol, and 0.25% deoxycholate. This is also available directly from Dyets, Inc., as catalog #611201. Both diets were ordered in 10 kg batches and stored at 4° C. for durations of the experiments (4-8 weeks), and at −20° C. for longer storage (up to six months). Water and this high fat diet were available to this group of hamsters ad libitum. The “High Fat+Fructose” group was fed the same fat-supplemented chow as the “high fat diet” group (#611201), but water was supplemented with fructose to a final concentration of 10%. Fructose was supplied from Now Foods (catalog #6931) and distributed by Lucky Vitamin (catalog #WB48432). Fructose water was prepared by adding 400 g of fructose to 4 L of water and stirring at room temperature until dissolved. Fructose water was stored at 4° C. until use. When provided to hamsters, fructose water was kept in a water bottle in the hamster cages at room temperature, exactly as standard water was. Fructose water and high fat chow were provided to this group of hamsters ad libitum. All animals remained on their respective diets for 21 days.
To begin this experiment, hamsters were randomly assigned to groups defined by the diet modifications above. After a fixed time, blood was collected from hamsters (N=3-4) to determine the lipid contents of the plasma. Because of limitations in the ability to adequately collect blood from hamsters, all blood samples were obtained via a terminal cardiac puncture preceded by asphyxiation with carbon dioxide. Blood (approximately 2 mL volume) was collected with a 22 G needle into a 5 mL syringe and transferred to a K2EDTA tube. The samples were kept on ice until centrifugation (14,000 rpm for 10 minutes at 4° C.) to separate plasma. Plasma was then aliquoted to tubes for storage at −80° C. until analysis.
Lipid parameters were determined using commercially available kits from Wako USA (Richmond, Va.) according to manufacturer's directions.
Male Golden Syrian hamsters were purchased from Charles River Labs (111-120 g, 56-61 days) and acclimated to a high fat+fructose (herein, referred to as “HF/HS”) diet as described above for two weeks. Hamsters were assigned into cohorts by body weight after two weeks' acclimation to the diet. […] Hamsters were dosed once per day for a total of 18 days. All animals remained on the above-described HF/HS diet throughout the dosing period. Dosing solutions for each cohort were prepared for 7 days at a time, although enough was prepared to last for 8 days. Each solution was stored at room temperature between administrations. Cohorts were defined according to Table 2 below.

[3] = Human clinical trial, single oral doses: serum concentration; format: in vivo; details: serum, ARI-001 2000 mg single oral dose, preliminary, read-out: Cmax, serum
Description: Five periods of single dose escalation, with 8 subjects per cohort (6 drug: 2 placebo) involve a total 40 subjects. Appropriately blinded matching placebos are provided. Cohort 1 receives 500 mg of ARI-001 formulated as a single oral tablet, plus eleven placebo tablets; Cohort 2, […] of ARI-001, plus ten placebo tablets; Cohort 3, […] of ARI-001, plus eight placebo tablets; Cohort 4, […] of ARI-001, plus four placebo tablets; Corhort 5, […] of ARI-001. Placebo-only subjects take twelve placebo tablets. Each tablet is a compressed, film-coated tablet suitable for oral administration.
Pharmacokinetic samples are collected at 0-45 min pre-dose and at 0.5, 1, 1.5, 2, 4, 6, 8, 12, 24, 30 and 168 hours after dosing. […]
[…] […] Analysis of all samples is performed at a central laboratory.

[4] = PO, 2240 mg/kg single bolus oral gavage
[5] = ARI-001 2240 mg/kg oral once daily 18 days, plasma, mean ± SD
[6] = ARI-001 2240 mg/kg vs molar equivalent niacin 1200 mg/kg, 18 days

AUC ([1]; IP, 448 mg/kg single bolus): 439 µM·h | Cmax ([1]; IP, 448 mg/kg single bolus): 450 µM | Tmax ([1]; IP, 448 mg/kg single bolus): 15 min | half-life ([1]; IP, 448 mg/kg single bolus): 30 min | AUC [1, 4]: 1100 µM·h | Cmax [1, 4]: 289 µM | Tmax [1, 4]: 30 min | half-life [1, 4]: 90 min | remaining plasma concentration at the 24 hour timepoint ([1]; single dose PO 2240 mg/kg or IP 448 mg/kg): undetectable | Cmax [3]: ~7500 ng/mL
Structure (SMILES): O=C(O)c1ccc(CCN2CCOCC2)nc1 [ARI-001]
TC (total cholesterol) ([2]; ARI-001 2240 mg/kg (9.75 mmol/kg) oral gavage once daily 18 days, plasma, mean ± SD): 343 ± 104 mg/dL | HDL/TC ([2]; ARI-001 2240 mg/kg oral once daily 18 days, mean ± SD): 0.48 ± 0.07 | FFA (free fatty acids) [2, 5]: 0.75 ± 0.15 mEq/L | HDL [2, 5]: 186 ± 74 mg/dL | LDL [2, 5]: 114 ± 33 mg/dL | TG (triglycerides) [2, 5]: 138 ± 80 mg/dL | efficacy relative to niacin, LDL cholesterol parameter [2, 6]: at least 1.67 times | efficacy relative to niacin, total cholesterol parameter [2, 6]: at least 1.54 times | increase of absolute HDL value compared to vehicle ([2]; ARI-001 2240 mg/kg, 18 days): 33% | TC (total cholesterol) ([2]; ARI-001 […] (4.88 mmol/kg) oral gavage once daily 18 days, plasma, mean ± SD): 653 ± 194 mg/dL
